From ChEMBL document CHEMBL1641533, “A facile, click chemistry-based approach to assembling fluorescent chemosensors for protein tyrosine kinases” (Bioorg Med Chem Lett, 2011)
Each block holds one compound with its values, some of them ahead of it. The source made the active and inactive calls. No cut-off for these calls is given here. Starred links: 1 amine or outer side, 2 acyl side, 3 side chain; linkers in the order of their positions; H or OH if unused. Non-standard residues stand in square brackets, D forms with d. Residues, ends and D or L forms follow the SMILES beside them. X2 = CCN1C(=O)c2cccc3c(-n4cc(C[C@H](N[*:1])C(=O)[*:2])nn4)ccc(c23)C1=O; X1 = O=C([C@H](Cc1cn(-c2ccc3ccc4cccc5ccc2c3c45)nn1)N[*:1])[*:2]; X5 = Cc1cc(=O)[nH]c2cc(-n3cc(C[C@H](N[*:1])C(=O)[*:2])nn3)ccc12; X4 = O=C([C@H](Cc1cn(-c2cc3ccc(O)cc3oc2=O)nn1)N[*:1])[*:2]; X3 = O=C([C@H](Cc1cn(-c2cccc3ccccc23)nn1)N[*:1])[*:2]

Experiments:
[1] = target: Tyrosine-protein kinase Lyn (Homo sapiens) (UniProt P07948); experiment: Binding affinity to Lyn assessed as increase of fluorescence after 60 mins relative to control
Tyrosine-protein kinase Lyn (Homo sapiens), sequence (P07948 2-512 limits assumed): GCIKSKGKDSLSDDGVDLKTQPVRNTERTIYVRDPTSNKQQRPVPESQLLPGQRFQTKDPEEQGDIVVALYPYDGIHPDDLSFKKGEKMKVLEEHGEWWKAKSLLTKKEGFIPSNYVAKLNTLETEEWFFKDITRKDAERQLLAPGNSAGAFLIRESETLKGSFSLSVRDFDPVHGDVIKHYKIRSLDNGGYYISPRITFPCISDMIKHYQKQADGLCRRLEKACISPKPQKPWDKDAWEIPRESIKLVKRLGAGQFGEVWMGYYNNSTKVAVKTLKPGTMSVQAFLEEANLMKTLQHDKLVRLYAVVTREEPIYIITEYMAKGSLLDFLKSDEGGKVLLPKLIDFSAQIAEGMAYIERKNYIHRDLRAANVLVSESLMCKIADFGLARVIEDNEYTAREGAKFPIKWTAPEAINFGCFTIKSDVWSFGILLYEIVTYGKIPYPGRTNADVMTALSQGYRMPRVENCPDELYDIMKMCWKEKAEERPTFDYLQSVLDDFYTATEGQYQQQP

[2] = target: Tyrosine-protein kinase Lyn (Homo sapiens) (UniProt P07948); experiment: Binding affinity to Lyn assessed as increase of fluorescence after 60 mins by HPLC analysis
[3] = target: Tyrosine-protein kinase Lyn (Homo sapiens) (UniProt P07948); experiment: Binding affinity to Lyn in human K562 CML cells assessed as increase of fluorescence; assay type: cell-based; conditions: TDE = time-dependent effect
[4] = target: Tyrosine-protein kinase Lyn (Homo sapiens) (UniProt P07948); experiment: Binding affinity to Lyn in human K562 CML cells assessed as increase of fluorescence after 60 mins in presence of SFK inhibitor SU6656; assay type: cell-based
[5] = target: Tyrosine-protein kinase Lyn (Homo sapiens) (UniProt P07948); experiment: Binding affinity to Lyn in human K562 CML cells assessed as increase of fluorescence after 60 mins in presence of Bcr-Abl inhibitor Imatinib; assay type: cell-based
[6] = target: Tyrosine-protein kinase Lyn (Homo sapiens) (UniProt P07948); experiment: Induction of Lyn phosphorylation in human K562 CML cells assessed as peptide substrate consumption at 25 uM after 10 mins; assay type: cell-based
[7] = target: Tyrosine-protein kinase Lyn (Homo sapiens) (UniProt P07948); experiment: Induction of Lyn phosphorylation in human K562 CML cells assessed as peptide substrate consumption at 25 uM after 20 mins; assay type: cell-based
[8] = target: Tyrosine-protein kinase Lyn (Homo sapiens) (UniProt P07948); experiment: Induction of Lyn phosphorylation in human K562 CML cells assessed as peptide substrate consumption at 25 uM after 40 mins; assay type: cell-based
[9] = target: Tyrosine-protein kinase Lyn (Homo sapiens) (UniProt P07948); experiment: Induction of Lyn phosphorylation in human K562 CML cells assessed as peptide substrate consumption at 25 uM after 60 mins; assay type: cell-based
[10] = target: Tyrosine-protein kinase Lyn (Homo sapiens) (UniProt P07948); experiment: Induction of Lyn phosphorylation in human K562 CML cells assessed as peptide substrate consumption at 25 uM after 10 mins in presence of Bcr-Abl inhibitor Imatinib; assay type: cell-based
[11] = target: Tyrosine-protein kinase Lyn (Homo sapiens) (UniProt P07948); experiment: Induction of Lyn phosphorylation in human K562 CML cells assessed as peptide substrate consumption at 25 uM after 20 mins in presence of Bcr-Abl inhibitor Imatinib; assay type: cell-based
[12] = target: Tyrosine-protein kinase Lyn (Homo sapiens) (UniProt P07948); experiment: Induction of Lyn phosphorylation in human K562 CML cells assessed as peptide substrate consumption at 25 uM after 40 mins in presence of Bcr-Abl inhibitor Imatinib; assay type: cell-based
[13] = target: Tyrosine-protein kinase Lyn (Homo sapiens) (UniProt P07948); experiment: Induction of Lyn phosphorylation in human K562 CML cells assessed as peptide substrate consumption at 25 uM after 60 mins in presence of Bcr-Abl inhibitor Imatinib; assay type: cell-based

SMILES: CC[C@H](C)[C@H](NC(=O)[C@H](CCC(=O)O)NC(=O)[C@H](CCC(=O)O)NC(=O)[C@H](CCC(=O)O)NC(=O)[C@H](C)N)C(=O)N[C@@H](Cc1ccc(O)cc1)C(=O)NCC(=O)N[C@@H](CCC(=O)O)C(=O)N[C@@H](Cc1cn(CCNS(=O)(=O)c2cccc3c(N(C)C)cccc23)nn1)C(=O)N[C@@H](CCC(=O)O)C(=O)N[C@@H](C)C(=O)N[C@@H](CCCCN)C(=O)N[C@@H](CCCCN)C(=O)N[C@@H](CCCCN)C(=O)N[C@@H](CCCCN)C(N)=O
fold change (FC) [1]: 0

SMILES: CC[C@H](C)[C@H](NC(=O)[C@H](CCC(=O)O)NC(=O)[C@H](CCC(=O)O)NC(=O)[C@H](CCC(=O)O)NC(=O)[C@H](C)N)C(=O)N[C@@H](Cc1ccc(O)cc1)C(=O)NCC(=O)N[C@@H](CCC(=O)O)C(=O)N[C@@H](Cc1cn(Cc2cc(=O)oc3cc(NC(C)=O)ccc23)nn1)C(=O)N[C@@H](CCC(=O)O)C(=O)N[C@@H](C)C(=O)N[C@@H](CCCCN)C(=O)N[C@@H](CCCCN)C(=O)N[C@@H](CCCCN)C(=O)N[C@@H](CCCCN)C(N)=O
fold change (FC) [1]: 1.3

SMILES: CC[C@H](C)[C@H](NC(=O)[C@H](CCC(=O)O)NC(=O)[C@H](CCC(=O)O)NC(=O)[C@H](CCC(=O)O)NC(=O)[C@H](C)N)C(=O)N[C@@H](Cc1ccc(O)cc1)C(=O)NCC(=O)N[C@@H](CCC(=O)O)C(=O)N[C@@H](Cc1cn(-c2ccc3ccc4cccc5ccc2c3c45)nn1)C(=O)N[C@@H](CCC(=O)O)C(=O)N[C@@H](C)C(=O)N[C@@H](CCCCN)C(=O)N[C@@H](CCCCN)C(=O)N[C@@H](CCCCN)C(=O)N[C@@H](CCCCN)C(N)=O (H-AEEEIYGE[X1]EAKKKK-NH2)
fold change (FC) [1]: 4
fold change (FC) [2]: 4
Activity [3]: tde
Activity [4]: inactive
Activity [5]: inactive
Activity [6]: 1.35%
Activity [7]: 1.67%
Activity [8]: 2.01%
Activity [9]: 4.24%
Activity [10]: 0.18%
Activity [11]: 0.25%
Activity [12]: 0.33%
Activity [13]: 0.41%

SMILES: CC[C@H](C)[C@H](NC(=O)[C@H](CCC(=O)O)NC(=O)[C@H](CCC(=O)O)NC(=O)[C@H](CCC(=O)O)NC(=O)[C@H](C)N)C(=O)N[C@@H](Cc1ccc(O)cc1)C(=O)NCC(=O)N[C@@H](CCC(=O)O)C(=O)N[C@@H](Cc1cn(-c2ccc3c4c(cccc24)C(=O)N(CC)C3=O)nn1)C(=O)N[C@@H](CCC(=O)O)C(=O)N[C@@H](C)C(=O)N[C@@H](CCCCN)C(=O)N[C@@H](CCCCN)C(=O)N[C@@H](CCCCN)C(=O)N[C@@H](CCCCN)C(N)=O (H-AEEEIYGE[X2]EAKKKK-NH2)
fold change (FC) [1]: 2.5

The next lines start with the values.

fold change (FC) [1]: 1.3
SMILES: CC[C@H](C)[C@H](NC(=O)[C@H](CCC(=O)O)NC(=O)[C@H](CCC(=O)O)NC(=O)[C@H](CCC(=O)O)NC(=O)[C@H](C)N)C(=O)N[C@@H](Cc1ccc(O)cc1)C(=O)NCC(=O)N[C@@H](CCC(=O)O)C(=O)N[C@@H](Cc1cn(Cc2cc(=O)oc3cc(N)ccc23)nn1)C(=O)N[C@@H](CCC(=O)O)C(=O)N[C@@H](C)C(=O)N[C@@H](CCCCN)C(=O)N[C@@H](CCCCN)C(=O)N[C@@H](CCCCN)C(=O)N[C@@H](CCCCN)C(N)=O

fold change (FC) [1]: 0
SMILES: CC[C@H](C)[C@H](NC(=O)[C@H](CCC(=O)O)NC(=O)[C@H](CCC(=O)O)NC(=O)[C@H](CCC(=O)O)NC(=O)[C@H](C)N)C(=O)N[C@@H](Cc1ccc(O)cc1)C(=O)NCC(=O)N[C@@H](CCC(=O)O)C(=O)N[C@@H](Cc1cn(-c2cccc3ccccc23)nn1)C(=O)N[C@@H](CCC(=O)O)C(=O)N[C@@H](C)C(=O)N[C@@H](CCCCN)C(=O)N[C@@H](CCCCN)C(=O)N[C@@H](CCCCN)C(=O)N[C@@H](CCCCN)C(N)=O (H-AEEEIYGE[X3]EAKKKK-NH2)

fold change (FC) [1]: 1.1
SMILES: CC[C@H](C)[C@H](NC(=O)[C@H](CCC(=O)O)NC(=O)[C@H](CCC(=O)O)NC(=O)[C@H](CCC(=O)O)NC(=O)[C@H](C)N)C(=O)N[C@@H](Cc1ccc(O)cc1)C(=O)NCC(=O)N[C@@H](CCC(=O)O)C(=O)N[C@@H](Cc1cn(-c2cc3ccc(O)cc3oc2=O)nn1)C(=O)N[C@@H](CCC(=O)O)C(=O)N[C@@H](C)C(=O)N[C@@H](CCCCN)C(=O)N[C@@H](CCCCN)C(=O)N[C@@H](CCCCN)C(=O)N[C@@H](CCCCN)C(N)=O (H-AEEEIYGE[X4]EAKKKK-NH2)

fold change (FC) [1]: 0
SMILES: CC[C@H](C)[C@H](NC(=O)[C@H](CCC(=O)O)NC(=O)[C@H](CCC(=O)O)NC(=O)[C@H](CCC(=O)O)NC(=O)[C@H](C)N)C(=O)N[C@@H](Cc1ccc(O)cc1)C(=O)NCC(=O)N[C@@H](CCC(=O)O)C(=O)N[C@@H](Cc1cn(-c2ccc3c(C)cc(=O)[nH]c3c2)nn1)C(=O)N[C@@H](CCC(=O)O)C(=O)N[C@@H](C)C(=O)N[C@@H](CCCCN)C(=O)N[C@@H](CCCCN)C(=O)N[C@@H](CCCCN)C(=O)N[C@@H](CCCCN)C(N)=O (H-AEEEIYGE[X5]EAKKKK-NH2)
